“Also recorded” adds a separate entry of the source.
Experiments:
[1] = biological target: cellular sigma receptors (C6 rat glioma cells) (Rattus norvegicus, UniProt Q9R0C9); assay: Competition with 11C-SA4503 binding to intact C6 glioma cell monolayers; conditions: for competition with 11C-SA4503 for binding to cellular sigma receptors: 50 µM competitor added to normal growth medium (DMEM with 7.5% FCS); for reduction of 11C-SA4503 radioligand binding to C6 cells: 50 µM competitor, steroid-free medium; for rank order of potency as competitor of 11C-SA4503 binding: C6 cells, both normal and steroid-depleted medium, 50 µM
Sequence of cellular sigma receptors (C6 rat glioma cells) (Q9R0C9 whole entry): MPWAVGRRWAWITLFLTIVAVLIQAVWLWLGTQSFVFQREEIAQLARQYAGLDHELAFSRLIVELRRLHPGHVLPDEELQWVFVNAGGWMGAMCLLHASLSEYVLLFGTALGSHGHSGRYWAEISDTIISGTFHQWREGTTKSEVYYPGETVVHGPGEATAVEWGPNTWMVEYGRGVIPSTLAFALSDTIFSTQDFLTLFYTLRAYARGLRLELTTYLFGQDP

[2] = Ex vivo biodistribution of 11C-SA4503 in C6 glioma-bearing Wistar rats; conditions: for SUV of 11C, C6 tumour / SUV of 11C, Cerebellum / SUV of 11C, Cerebral cortex: 60 min after injection
[3] = biological target: sigma-1 receptors in tumour and brain (Rattus norvegicus, UniProt Q9R0C9); assay: microPET scanning of 11C-SA4503 in C6 glioma-bearing Wistar rats
Sequence of sigma-1 receptors in tumour and brain (Q9R0C9 whole entry): as above

[4] = test system: endogenous steroid levels in the brain (progesterone, pregnenolone); conditions: male rats, sodium pentobarbital 0.2 mmol/kg i.p.; cited from earlier work
[5] = test system: Plasma progesterone; conditions: female rats; cited from earlier work
[6] = progesterone 3 x 10 mg i.p. in arachid oil vs arachid oil
[7] = prolonged pentobarbital anaesthesia vs control
[8] = prolonged pentobarbital anaesthesia, n = 5

**Q.** Which “competition with 11C-SA4503 for binding to cellular sigma receptors” value [1] does the source give for `C[C@]12CC[C@H](OS(=O)(=O)[O-])CC1=CC[C@@H]1[C@@H]2CC[C@]2(C)C(=O)CC[C@@H]12.[Na+]` [DHEA-S, dehydroepiandrosterone 3-sulphate sodium salt] here?
**A.** no statistically significant effect

**Q.** And the “reduction of 11C-SA4503 radioligand binding to C6 cells” value [1]?
**A.** significant decrease

**Q.** What about the “rank order of potency as competitor of 11C-SA4503 binding” value [1] of the same compound?
**A.** progesterone > androstanolone = testosterone = allopregnanolone > DHEA-S

**Q.** Which results are given for `C[C@]12CC[C@H]3[C@@H](CCC4=CC(=O)CC[C@@]43C)[C@@H]1CC[C@@H]2O` [testosterone]?
**A.** competition with 11C-SA4503 for binding to cellular sigma receptors [1]: measurable competition; reduction of 11C-SA4503 radioligand binding to C6 cells [1]: 40%; rank order of potency as competitor of 11C-SA4503 binding [1]: progesterone > androstanolone = testosterone = allopregnanolone > DHEA-S

**Q.** What does the source list for `CC(=O)[C@H]1CC[C@H]2[C@@H]3CCC4=CC(=O)CC[C@]4(C)[C@H]3CC[C@]12C` [progesterone]?
**A.** decrease of sigma ligand (11C-SA4503) binding in C6 tumour (biodistribution) ([2]; progesterone 3 x 10 mg i.p. vs arachid oil, 60 min after tracer): 31%; effect on 11C-SA4503 tracer kinetics in blood pool (microPET) [3, 6]: did not significantly affect; also recorded: not accompanied by any significant change; effect on 11C-SA4503 tracer kinetics in brain (microPET) [3, 6]: did not significantly affect

**Q.** For `CCCC(C)C1(CC)C(=O)NC(=O)NC1=O` (stereo not drawn) [pentobarbital], which “effect on amount of 11C-SA4503 radioactivity in the liver (biodistribution)” value [2, 7] is on record?
**A.** significantly decreased

**Q.** And the “effect on plasma levels of 11C-SA4503 radioactivity (biodistribution)” value [2, 7]?
**A.** not changed

**Q.** What about the “effect on sigma ligand binding in C6 tumour, brain (cerebellum, cerebral cortex), bone, bone marrow, large intestine, blood cells and spleen (biodistribution)” value [2, 7] of the same compound?
**A.** significant increase

**Q.** What about the “inhibition of 11C-SA4503 binding to C6 cells” value ([1]; up to 1 mM in normal medium) of the same compound?
**A.** did not result in any inhibition

**Q.** What about the “decline of endogenous steroid levels in the brain (progesterone, pregnenolone)” value [4] of the same compound?
**A.** > 70%

**Q.** What about the “effect on plasma progesterone” value [5] of the same compound?
**A.** decreased

**Q.** And the “effect on kinetics of 11C-SA4503 radioactivity in blood pool (right lung)” value ([3]; prolonged pentobarbital anaesthesia (>3.5 h) vs short (<20 min))?
**A.** unaffected; also recorded: did not significantly affect

**Q.** For `C[C@]12CCC(=O)C[C@@H]1CC[C@@H]1[C@@H]2CC[C@]2(C)[C@@H](O)CC[C@@H]12` [androstanolone, 5α-androstan-17β-ol-3-one], which “competition with 11C-SA4503 for binding to cellular sigma receptors” value [1] is on record?
**A.** measurable competition

**Q.** And the “rank order of potency as competitor of 11C-SA4503 binding” value [1]?
**A.** progesterone > androstanolone = testosterone = allopregnanolone > DHEA-S

**Q.** Which “SUV of 11C, C6 tumour” value ([2]; control (arachid oil), n = 4) does the source give for `COc1ccc(CCN2CCN(CCCc3ccccc3)CC2)cc1OC` [11C-SA4503] here?
**A.** 0.83

**Q.** What about the “SUV of 11C, Cerebellum” value ([2]; control (arachid oil), n = 4) of the same compound?
**A.** 1.66

**Q.** What about the “SUV of 11C, Cerebral cortex” value ([2]; control (arachid oil), n = 4) of the same compound?
**A.** 1.50

**Q.** What about the “SUV of 11C, C6 tumour” value [2, 8] of the same compound?
**A.** 1.52

**Q.** And the “SUV of 11C, Cerebellum” value [2, 8]?
**A.** 2.41

**Q.** What about the “SUV of 11C, Cerebral cortex” value [2, 8] of the same compound?
**A.** 2.38
